Results from article PMC6411751, “Use of machine learning to identify novel, behaviorally active antagonists of the insect odorant receptor co-receptor (Orco) subunit” (Scientific Reports, 2019).
Read-outs that look alike come from different tables or passages of the source.

Biological target: T1, Agam\Orco (Anopheles gambiae, UniProt Q7QCC7)
T1 construct: expressed in transfected cells; host or cells: Xenopus laevis oocytes injected with capped cRNA (plasmid pT7TS, gift of L. Zwiebel)
T1 sequence (Q7QCC7 1-478): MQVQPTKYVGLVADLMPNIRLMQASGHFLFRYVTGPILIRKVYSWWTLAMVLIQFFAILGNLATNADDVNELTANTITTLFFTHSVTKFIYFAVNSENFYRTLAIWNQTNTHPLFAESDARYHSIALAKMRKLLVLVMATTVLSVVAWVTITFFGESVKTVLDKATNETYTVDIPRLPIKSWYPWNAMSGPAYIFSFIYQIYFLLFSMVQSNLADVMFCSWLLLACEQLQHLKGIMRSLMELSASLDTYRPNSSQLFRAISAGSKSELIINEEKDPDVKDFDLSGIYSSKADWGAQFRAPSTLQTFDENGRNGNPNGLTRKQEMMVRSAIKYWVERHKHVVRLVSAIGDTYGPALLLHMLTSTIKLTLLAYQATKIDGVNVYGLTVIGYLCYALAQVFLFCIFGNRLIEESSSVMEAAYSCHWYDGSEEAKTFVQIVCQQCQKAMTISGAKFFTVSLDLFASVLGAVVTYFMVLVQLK
Test: cell-based
Type: cell-based
Conditions: for inhibition at 3000 µM: read-out: inhibition of Agam\Orco (OLC12 response) at 3 mM
Procedure: A 2 hr incubation with collagenase B (Roche) was used to remove follicle cells from oocytes. Capped cRNA for Agam\Orco was synthesized using mMessage mMachine kits (Thermo Fisher Scientific). 25 ng of cRNA was injected into stage V–VI oocytes, followed by a 2–5 day incubation at 18 °C in Barth’s saline (in mM: 88 NaCl, 1 KCl, 2.4 NaHCO3, 0.3 CaNO3, 0.41 CaCl2, 0.82 MgSO4, 15 HEPES, pH 7.4, and 0.05 g/L tetracycline, 0.05 g/L ciprofloxacin, 0.1 g/L amikacin) prior to electrophysiological recordings.
An automated parallel electrophysiology system (OpusExpress 6000 A, Molecular Devices) was used to record Orco agonist (OLC12) or odorant induced currents under two-electrode voltage clamp. Oocytes were perfused with ND96 (in mM: 96 NaCl, 2 KCl, 1 CaCl2, 1 MgCl2, 5 HEPES, pH 7.4). DMSO was used to prepare 1 M or 100 mM stock solutions of test compounds, which were then diluted in ND96 on the day of the experiment. Compounds were applied at a flow rate of 1.0 mL/min, with extensive washing in ND96 at 4.6 mL/min between applications. Micropipettes with resistances of 0.2–2.0 MΩ were filled with 3 M KCl. The holding potential was −70 mV. Current responses were filtered (4-pole, Bessel, low pass) at 20 Hz (−3 db) and sampled at 100 Hz. OpusXpress 1.1 software (Molecular Devices) was used to capture and store current responses.
To measure antagonist activity at Orco, Agam\Orco was activated by the Orco agonist OLC12[34]. […] The current response to OLC12 in the presence of antagonist candidate was compared to the mean of the preceding two responses to OLC12 alone and presented as a percentage[34],[35]. This value was then normalized to the value obtained when the assay was run in the absence of antagonist candidate (sham).
During development of the training panel (Fig. 2, Tables S1 and S2), all compounds not previously known to be Orco antagonists were tested at a concentration of 3 mM. […] Concentration-inhibition curves were constructed for all compounds eliciting >20 percent inhibition at 3 mM. The same concentration and criteria were used during screening of predicted actives (Fig. 4D) and predicted inactives (Fig. 5C).
Clampfit 9.1 software (Molecular Devices) was used to perform initial analysis of electrophysiological data. Prism 7 (Graphpad) was used for curve fitting. Concentration-inhibition data were fit to the equation: I = Imax/(1 + (X/IC50)^n) where I represents the current response at a given concentration of inhibitor, X; Imax is the maximal response in the absence of inhibitor; IC50 is the concentration of inhibitor present that allows a half maximal response from OLC12; n is the apparent Hill coefficient.

[1] = Table S1, training actives, Agam\Orco activated by 30 µM OLC12, mean ± SEM (n = 3-8), read-out: IC50
[2] = Agam\Orco IC50 compared with BMP
[3] = Table 2, inhibition of Agam\Orco activated by 30 µM OLC12, mean ± SEM (n = 3–9), read-out: IC50

Molecule | IC50 [1] | other results
CCCCCCOC(C)=O [hexyl acetate] | 841 ± 121 µM | –
CCCCC/C=C\C/C=C\CCCCCCCC(=O)O [linoleic acid] | – | inhibition at 3000 µM (3 mM compound, 30 µM OLC12): ≤ 20%
CCOC(=O)c1ccccc1 [ethyl benzoate] | 569 ± 44 µM | –
CC1(O)CSC(C)(O)CS1 (centres unmarked) [2,5-dimethyl-2,5-dihydroxy-1,4-dithiane] | 4860 ± 1270 µM | –
CC(C)(C)c1ccccc1O [2-tert-butylphenol] | – | IC50: 32 ± 5 µM; change in potency relative to BMP [2]: slight increase in potency
CC1=CC(=O)CC(C)(C)C1 [isophorone] | – | inhibition at 3000 µM (3 mM compound, 30 µM OLC12): ≤ 20%
O=C(/C=C/c1ccccc1)OCc1ccccc1 [benzyl cinnamate] | 492 ± 64 µM | –
c1ccsc1 [thiophene] | 2670 ± 147 µM | –
CCCCc1ccc(NC(=O)CSc2nnc(-c3ccccn3)n2CC)cc1 [OLC15, N-(4-butylphenyl)-2-((4-Et-5-(2-pyridinyl)-4H-1,2,4-triazol-3-yl)thio)acetamide, reference compound] | 10 ± 2 µM | –
(+)-isopulegol | 1370 ± 285 µM | –
c1cnccn1 [pyrazine] | – | inhibition at 3000 µM (3 mM compound, 30 µM OLC12): ≤ 20%
C#CC(O)CCCCC (centres unmarked) [1-octyn-3-ol] | 870 ± 60 µM | –
COc1ccccc1OC [veratrole] | 5420 ± 845 µM | –
CC(C)c1cccc(C(C)(C)C)c1O [2-tert-butyl-6-isopropylphenol] | – | IC50: 50 ± 7 µM; change in potency relative to BMP [2]: no effect on potency
Cc1ccc(CNC(=O)c2cccs2)cc1 [OX3a, N-(4-methylbenzyl)-2-thiophenecarboxamide, reference compound] | 202 ± 15 µM | –
Oc1ccccc1O [catechol] | – | inhibition at 3000 µM (3 mM compound, 30 µM OLC12): ≤ 20%
N[C@@H](Cc1c[nH]cn1)C(=O)O [histidine] | – | inhibition at 3000 µM (3 mM compound, 30 µM OLC12): ≤ 20%
CCCCC1Cc2ccccc2C1=O (centres unmarked) [2-butyl-1-indanone] | 289 ± 28 µM | –
Cc1cc(C)c(NC(=O)c2cccs2)c(C)c1 [OX1L, N-mesityl-2-thiophenecarboxamide, reference compound] | 58 ± 10 µM | –
O=C(O)CCCCCBr [6-bromohexanoic acid] | – | inhibition at 3000 µM (3 mM compound, 30 µM OLC12): ≤ 20%
CC1=CCC2CC1C2(C)C (stereo not drawn) [α-pinene] | – | inhibition at 3000 µM (3 mM compound, 30 µM OLC12): ≤ 20%
O=Cc1ccc(O)cc1 [4-hydroxybenzaldehyde] | 3620 ± 449 µM | –
COc1ccccc1 [anisole] | 1170 ± 243 µM | –
N[C@@H](Cc1c[nH]c2ccccc12)C(=O)O [tryptophan] | – | inhibition at 3000 µM (3 mM compound, 30 µM OLC12): ≤ 20%
NCCc1c[nH]c2ccccc12 [tryptamine] | 48 ± 10 µM | –
COc1ccc(OC)cc1 [1,4-dimethoxybenzene] | 1100 ± 172 µM | –

Molecule | IC50 [1] | other results
CC(C=O)=Cc1ccccc1 [α-methyl cinnamaldehyde] | 187 ± 40 µM | –
O=C(O)CCCCBr [5-bromovaleric acid] | – | inhibition at 3000 µM (3 mM compound, 30 µM OLC12): ≤ 20%
O=Cc1ccc2c(c1)OCO2 [piperonal] | 2570 ± 244 µM | –
O=C1CCCCCCCCCC1 [cycloundecanone] | 366 ± 28 µM | –
CCCCCCC1CCC(=O)O1 (centres unmarked) [γ-decalactone] | 948 ± 153 µM | –
c1cscn1 [thiazole] | – | inhibition of Agam\Orco (OLC12 response) at 3 mM (3 mM compound, 30 µM OLC12): ≤ 20%
COC(C)=O [methyl acetate] | 1640 ± 179 µM | –
CC(C)c1ccc(CO)cc1 [4-isopropylbenzyl alcohol] | – | IC50: 605 ± 116 µM
CC1CCC(C(C)C)C(O)C1 (single isomer, unassigned; (-)) [(-)menthol] | 433 ± 78 µM | –
Cc1ccc(O)c(C(C)(C)C)c1 [2-tert-butyl-4-methylphenol] | – | more potent than BMP: 2 fold; IC50 [3]: 25 ± 3 µM
Cc1cccc(O)c1 [m-cresol] | 1280 ± 238 µM | –
CC(C)(C)c1ccc(O)c(C(C)(C)C)c1 [2,4-di-tert-butylphenol] | – | IC50: 15 ± 1 µM; more potent than BMP: 3 fold
Cc1ccnc2ccccc12 [4-methylquinoline] | – | inhibition at 3000 µM (3 mM compound, 30 µM OLC12): ≤ 20%
C=C(C)C1CCC(C)C(O)C1 (single isomer, unassigned; (-)) [(-)-dihydrocarveol] | 818 ± 81 µM | –
CC(C)c1ccc(O)c(C(C)C)c1 [C00014, 2,4-diisopropylphenol] | – | IC50 [3]: 37 ± 7 µM
CC(C)OC(=O)C=Cc1ccccc1 [isopropyl cinnamate] | 153 ± 14 µM | –
CCOC(=O)CC [ethyl propionate] | – | inhibition at 3000 µM (3 mM compound, 30 µM OLC12): ≤ 20%
CC(C)c1cccc(C(C)C)c1O [propofol, 2,6-diisopropylphenol, reference compound] | – | IC50: 47 ± 3 µM; Orco antagonist activity: has Orco antagonist activity
COc1ccccc1O [guaiacol] | 4030 ± 654 µM | –
CCN(CC)C(=O)c1cccc(C)c1 [DEET, N,N-diethyl-m-toluamide, reference compound] | 4480 ± 369 µM | inhibition of OLC12 activation (1 mM compound, 30 µM OLC12): little or no inhibition
CCOC(=O)C=Cc1c(Cl)cccc1Cl [ethyl 2,6-dichlorocinamate] | 93 ± 11 µM | –
CCc1cccc(CC)c1O [2,6-diethylphenol] | – | IC50: 86 ± 17 µM; change in potency relative to BMP [2]: slightly decreased potency
C=C(C)[C@H]1CC=C(C)C(=O)C1 [(S)-carvone] | 1280 ± 92 µM | –
CC(C)CCOC(=O)Cc1ccccc1 [isoamyl phenylacetate] | 692 ± 66 µM | –
N[C@@H](Cc1ccccc1)C(=O)O [phenylalanine] | – | inhibition at 3000 µM (3 mM compound, 30 µM OLC12): ≤ 20%
CC1CC[C@H](C(C)C)[C@@H](O)C1 (single isomer, unassigned; (+)) [(+)menthol] | 443 ± 72 µM | –

Molecule | IC50 [1] | other results
Cc1cc(C)c(O)c(C)c1 [2,4,6-trimethylphenol] | – | loss of potency relative to BMP [2]: 4.5 fold; IC50 [3]: 212 ± 29 µM
CCCCCSC [amyl methyl sulfide] | 915 ± 77 µM | –
C=C(C)C1CC=C(C)[C@@H](O)C1 (single isomer, unassigned; (-)) [(-)-carveol] | 1030 ± 117 µM | –
CC(C)(C)c1cccc(C(C)(C)C)c1O [2,6-di-tert-butylphenol] | – | change in potency relative to BMP [2]: slightly decreased potency; IC50 [3]: 92 ± 9 µM
SCCCCCCCCCS [1,9-nonanedithiol] | 1600 ± 299 µM | –
C=CCc1ccc(OC)c(OC)c1 [methyl eugenol] | 525 ± 40 µM | –
CC1=NC(C)SC1C (centres unmarked) [2,5-dihydro-2,4,5-trimethylthiazoline] | 13000 ± 2400 µM | –
C=C(C)[C@@H]1CC[C@@H](C)C(=O)C1 [(+)-dihydrocarvone] | 1240 ± 219 µM | –
Cc1ccccc1 [toluene] | 1600 ± 243 µM | –
(−)-terpinen-4-ol | 678 ± 78 µM | –
c1ccc(CNc2ccccc2)cc1 [n-benzylaniline] | – | IC50: 114 ± 12 µM
CC1(C)C(=O)[C@@]2(C)CC[C@H]1C2 [L-fenchone] | 1330 ± 105 µM | –
CCC(=O)C(C)=O [2,3-pentanedione] | – | inhibition at 3000 µM (3 mM compound, 30 µM OLC12): ≤ 20%
CC12CCC(CC1)C(C)(C)O2 [eucalyptol] | 2960 ± 255 µM | –
CCCCO [1-butanol] | – | inhibition of Agam\Orco (OLC12 response) at 3 mM: ≤ 20%
CCCC=O [butyraldehyde] | 3000 ± 333 µM | –
Cc1ccc(C(C)C)c(O)c1 [thymol] | 61 ± 10 µM | change in potency relative to 3I6MC (Agam\Orco IC50 compared with 3I6MC): slightly decreased potency
OC[C@H]1OC(O)[C@H](O)[C@@H](O)[C@@H]1O (some centres unmarked) [glucose] | – | inhibition at 3000 µM (3 mM compound, 30 µM OLC12): ≤ 20%
Brc1ccccc1 [bromobenzene] | 1160 ± 143 µM | –
COc1nccnc1CC(C)C [2-isobutyl-3-methoxypyrazine] | 1020 ± 83 µM | –
O=CCCc1ccccc1 [hydrocinnamaldehyde] | 220 ± 24 µM | –
CC(C)=CCC[C@@H](C)CC=O [(R)-(+)-citronellal] | 651 ± 58 µM | –
O=C1CCCC1 [cyclopentanone] | – | inhibition at 3000 µM (3 mM compound, 30 µM OLC12): ≤ 20%
CN(C)C [trimethylamine] | – | inhibition of Agam\Orco (OLC12 response) at 3 mM (3 mM compound, 30 µM OLC12): ≤ 20%
